Values belong to the molecule of their own block, whether it stands above or below them.
Experiments:
Format in all cases: physicochemical
[1] = Storage stability of aqueous prothioconazole solutions with or without cyclodextrins (LC-MS); conditions: two weeks at 54° C.
Procedure: Aqueous solutions of prothioconazole (PTZ) at a concentration of about 1% to about 1.5% (w/w) were prepared. These samples were stored for two weeks at 54° C., for eight weeks at 40° C., or for 52 weeks at 20° C. The initial amount of PTZ in each sample was measured together with the final amount of PTZ after storage using LC-MS as outlined in Example 1. From these measurements the percentage of PTZ remaining after storage was calculated and ranged from about 94% to about 97% (see FIG. 1A).
In a separate experiment, the ability of two different cyclodextrins, 2-hydroxypropyl-β cyclodextrin (HPCD) and methyl-β cyclodextrin (MeCD), to stabilize PTZ was evaluated. Aqueous solutions of PTZ at a concentration of about 1% to about 1.5% (w/w) were mixed with 15% (w/w) HPCD or 15% (w/w) MeCD. A control sample contained no cyclodextrins. The samples were stored for two weeks at 54° C., and the percentage of PTZ remaining after storage was calculated as before using LC-MS.

[2] = Storage of RAXIL PRO MD for two weeks with or without nitrogen purging; prothioconazole desthio quantified by LC-MS; conditions: sample D compared to samples A, B and C
Procedure: RAXIL® PRO MD is a commercial product containing 1.47% prothioconazole, 0.29% tebuconazole, and 0.59% metalaxyl in an aqueous formulation. Samples of RAXIL® PRO MD were subjected to nitrogen purging by bubbling nitrogen gas through the samples for about 5 minutes. Control samples were not purged with nitrogen. The samples were then divided into the groups outlined in Table 1. Samples were either maintained in the dark or exposed to ambient light. In addition, certain samples were wrapped in foil to minimize contact with ambient oxygen while others were not. All samples were stored at room temperature.
After two weeks of storage under these conditions, prothioconazole desthio was quantified in each sample using liquid chromatography mass spectrometry (LC-MS) using a SCIEX TRIPLE QUAD™6500 and a standard curve generated with a prothioconazole desthio chemical standard.

[3] = Storage of Prothioconazole SC for two months with or without nitrogen purging; prothioconazole desthio quantified by LC-MS; conditions: sample D compared to samples A and B
Procedure: All samples were stored in glass containers with exposure to ambient light at room temperature for two months. Certain samples were also wrapped with foil to limit exposure to ambient oxygen. At the conclusion of the storage period, prothioconazole desthio was quantified in each sample using LC-MS.
This study was conducted with the same group of samples stored for two months in containers made of plastic instead of glass, and similar results were observed.

[4] = Storage stability of RAXIL PRO MD + penflufen with increasing methyl cyclodextrin (HPLC); conditions: RAXIL PRO MD+PFL (1.38% w/w), highest concentration of cyclodextrin (MeCD); two weeks at 54° C.
Source text: A sample containing PTZ without any PFL or cyclodextrin was included as the “Control” in FIGS. 3 and 4.

[5] = Storage stability of prothioconazole/penflufen mixture with 25 wt % MeCD at various temperatures (HPLC); conditions: for % Degradation (PTZ) / % PTZ / % PFL: with 25 wt % MeCD
Procedure: Aqueous solutions of a mixture of prothioconazole (PTZ) at a concentration of about 1.5% (w/w), and penflufen at a concentration of about 1.65% (w/w), were prepared and physically mixed with MeCD at 25 wt %. These samples were stored for two weeks at 54° C., for eight weeks at 40° C., or for 6 months at 30° C. The initial amount of PTZ or PFL in each sample was measured together with the final amount of PTZ or PLF after storage using HPLC.

SMILES: OC(Cc1ccccc1Cl)(Cn1nc[nH]c1=S)C1(Cl)CC1 (racemic) [Prothioconazole, 2-[2-(1-chlorocyclopropyl)-3-(2-chloro-phenyl)-2-hydroxy-propyl]-2,4-dihydro-3H-1,2,4-triazole-3-thione]
degradation of PTZ ([1]; mixed with 15% (w/w) HPCD): no observable degradation | degradation of PTZ ([1]; mixed with 15% (w/w) MeCD): no observable degradation | Level of degradation to prothioconazole desthio, samples not purged with nitrogen versus nitrogen-stabilized samples and samples stored in the dark [2]: over ten times higher | Level of degradation to prothioconazole desthio, sample exposed to light and ambient oxygen versus nitrogen-stabilized samples [3]: about ten times higher | reduction in degradation of PTZ [4]: 86% | % Degradation (PTZ) ([5]; Table 3, 30° C. for 6 months): 2.01% | % PTZ ([5]; Table 3, 30° C. for 6 months): 1.46% | % Degradation (PTZ) ([5]; Table 3, 40° C. for 8 weeks): 4.03% | % PTZ ([5]; Table 3, 40° C. for 8 weeks): 1.43% | % Degradation (PTZ) ([5]; Table 3, 54° C. for 2 weeks): 2.68% | % PTZ ([5]; Table 3, 54° C. for 2 weeks): 1.45% | % Degradation (PTZ) ([5]; Table 3, T0): 0% | % PTZ ([5]; Table 3, T0): 1.49% | % Degradation (PTZ) ([5]; Table 4, 30° C. for 6 months): 2.01% | % PTZ ([5]; Table 4, 30° C. for 6 months): 1.46% | % Degradation (PTZ) ([5]; Table 4, 40° C. for 8 weeks): 4.70% | % PTZ ([5]; Table 4, 40° C. for 8 weeks): 1.42% | % Degradation (PTZ) ([5]; Table 4, 54° C. for 2 weeks): 2.01% | % PTZ ([5]; Table 4, 54° C. for 2 weeks): 1.46% | % Degradation (PTZ) ([5]; Table 4, T0): 0% | % PTZ ([5]; Table 4, T0): 1.49%

reduction in degradation of PFL [4]: 65% | % Degradation (PFL) ([5]; 0 weeks, 1.65 % (w/w)): 0% | % PFL ([5]; Table 3, 30° C. for 6 months): 1.62% | % PFL ([5]; Table 3, 40° C. for 8 weeks): 1.54% | % PFL ([5]; Table 3, 54° C. for 2 weeks): 1.6% | % PFL ([5]; Table 3, T0): 1.68% | % PFL ([5]; Table 4, 30° C. for 6 months): 1.58% | % PFL ([5]; Table 4, 40° C. for 8 weeks): 1.60% | % PFL ([5]; Table 4, 54° C. for 2 weeks): 1.58% | % PFL ([5]; Table 4, T0): 1.64%
SMILES: Cc1nn(C)c(F)c1C(=O)Nc1ccccc1C(C)CC(C)C (stereo not shown) [Penflufen, N[2-(1,3-dimethylbutyl)phenyl]-5-fluoro-1,3-dimethyl pyrazole-4-carboxamide]

— patent US20210212321A1, “STABILIZED FUNGICIDAL COMPOSITION COMPRISING CYCLODEXTRIN” (Bayer CropScience LP, priority 2018, published 2021)
